Results on six compounds are retold here after ChEMBL document CHEMBL4371035, “Design, synthesis and biological evaluation of bifunctional inhibitors of membrane type 1 matrix metalloproteinase (MT1-MMP)” (Bioorg Med Chem, 2019).

Active and inactive are the calls of the source. The calls are words filed in the database; no cut-off is given here.

One series has as its target T1, Interstitial collagenase (Homo sapiens, UniProt P03956).
T1 sequence (P03956 whole entry): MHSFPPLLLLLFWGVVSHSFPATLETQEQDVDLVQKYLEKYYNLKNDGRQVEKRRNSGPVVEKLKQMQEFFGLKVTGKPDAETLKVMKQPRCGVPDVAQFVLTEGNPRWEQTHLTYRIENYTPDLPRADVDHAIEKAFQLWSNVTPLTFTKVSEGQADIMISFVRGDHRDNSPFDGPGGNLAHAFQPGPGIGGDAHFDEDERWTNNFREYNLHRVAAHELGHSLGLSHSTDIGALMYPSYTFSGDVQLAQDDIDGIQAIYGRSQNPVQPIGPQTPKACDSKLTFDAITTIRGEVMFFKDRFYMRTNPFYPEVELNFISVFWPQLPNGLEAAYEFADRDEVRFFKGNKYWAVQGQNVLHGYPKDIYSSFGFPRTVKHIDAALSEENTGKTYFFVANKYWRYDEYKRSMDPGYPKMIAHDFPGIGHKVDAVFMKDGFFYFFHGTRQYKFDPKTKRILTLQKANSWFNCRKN
Put plainly: Inhibition of recombinant human pro-MMP1 using Mca-Lys-Pro-Leu-Gly-Leu-Dap(Dnp)-Ala-Arg-NH2 as substrate preincubated for 3 hrs followed by substrate addition and measured every 10 secs for 15 mins in presence of APMA by fluorometric assay.

For series [1], the target named is 72 kDa type IV collagenase (Homo sapiens, UniProt P08253). Put plainly: Inhibition of recombinant human proMMP2 using Mca-Lys-Pro-Leu-Gly-Leu-Dap(Dnp)-Ala-Arg-NH2 as substrate preincubated for 3 hrs followed by substrate addition and measured every 10 secs for 15 mins in presence of APMA by fluorometric assay.
Chain of 72 kDa type IV collagenase (P08253 whole entry): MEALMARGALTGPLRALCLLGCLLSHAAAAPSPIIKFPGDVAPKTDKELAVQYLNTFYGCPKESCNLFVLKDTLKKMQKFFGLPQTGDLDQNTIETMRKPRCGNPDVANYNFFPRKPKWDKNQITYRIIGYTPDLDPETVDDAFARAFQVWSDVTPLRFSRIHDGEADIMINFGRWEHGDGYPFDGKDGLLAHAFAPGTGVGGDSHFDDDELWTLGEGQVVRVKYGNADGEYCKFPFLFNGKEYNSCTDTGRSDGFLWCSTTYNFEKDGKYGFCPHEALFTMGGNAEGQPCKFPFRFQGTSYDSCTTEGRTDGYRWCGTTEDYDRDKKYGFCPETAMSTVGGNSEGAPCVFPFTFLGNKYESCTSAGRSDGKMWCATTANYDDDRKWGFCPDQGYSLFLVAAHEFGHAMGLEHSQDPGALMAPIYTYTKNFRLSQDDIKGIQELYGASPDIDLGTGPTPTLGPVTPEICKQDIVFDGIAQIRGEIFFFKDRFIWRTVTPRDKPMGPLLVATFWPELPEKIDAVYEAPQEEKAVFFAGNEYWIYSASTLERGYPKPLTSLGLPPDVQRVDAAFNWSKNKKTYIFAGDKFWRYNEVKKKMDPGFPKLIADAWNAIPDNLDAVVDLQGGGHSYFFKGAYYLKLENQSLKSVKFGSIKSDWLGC
Series [2] has as its target Matrix metalloproteinase-9 (Homo sapiens, UniProt P14780). Put plainly: Inhibition of recombinant human proMMP9 using Mca-Lys-Pro-Leu-Gly-Leu-Dap(Dnp)-Ala-Arg-NH2 as substrate preincubated for 3 hrs followed by substrate addition and measured every 10 secs for 15 mins in presence of APMA by fluorometric assay.
The target in series [3] is T2, Matrix metalloproteinase-14 (Homo sapiens, UniProt P50281). Kind of series: Inhibition of recombinant human MT1-MMP catalytic domain using Mca-Lys-Pro-Leu-Gly-Leu-Dap(Dnp)-Ala-Arg-NH2 as substrate preincubated for 3 hrs followed by substrate addition and measured every 10 secs for 15 min by fluorometric assay.
Series [4] deals with T2, Matrix metalloproteinase-14. Kind of series: Inhibition of MT1-MMP-mediated proMMP-2 activation in human HT1080 cells stimulated with type I collagen for 24 hrs followed by compound addition assessed as increase in proMT1-MMP (65 KDa) level at 1 to 10 uM and measured after 24 hrs by Western blot analysis. Type of series: cell-based.
For series [5] the target is unchanged. Kind of series: Inhibition of MT1-MMP-mediated proMMP-2 activation in human HT1080 cells stimulated with type I collagen for 24 hrs followed by compound addition assessed as increase in active MT1-MMP (55 KDa) level at 1 to 10 uM and measured after 24 hrs by Western blot analysis. Type of series: cell-based. In general terms: A western blot detects proteins with antibodies after separation by electrophoresis.

For series [6] the target is unchanged. To be noted: 0.1 to 10 uM.
Description: Inhibition of MT1-MMP-mediated proMMP-2 activation in human HT1080 cells stimulated with type I collagen for 24 hrs followed by compound addition at 0.1 to 10 uM and measured after 24 hrs by gelatin zymography assay
Series [7] has the same target. As to conditions: 0.01 uM.
Description: Inhibition of MT1-MMP-mediated proMMP-2 activation in human HT1080 cells stimulated with type I collagen for 24 hrs followed by compound addition at 0.01 uM and measured after 24 hrs by gelatin zymography assay
For series [8] the target is unchanged. As to conditions: 1 to 10 uM.
Description: Inhibition of MT1-MMP-mediated proMMP-2 activation in human HT1080 cells stimulated with type I collagen for 24 hrs followed by compound addition assessed as reduction in processed form of MT1-MMP (40 KDa) level at 1 to 10 uM and measured after 24 hrs by Western blot analysis
Series [9] has the same target. To be noted: 10 uM.
Description: Inhibition of MT1-MMP mediated collagenolytic activity in human HT1080 cells stimulated with type I collagen for 48 hrs followed by compound addition at 10 uM and measured after 48 hrs by Coomassie Blue staining-based collagen film degradation assay
A further series deals with HT-1080. Kind of series: Cytotoxicity against human HT1080 cells at 10 to 50 uM after 4 hrs by MTS assay. Type of series: cell-based. To be noted: ht-1080, 4 h. (In general: Formazan colour is commonly taken as a measure of viable cells.)
Series [10] addresses T2, Matrix metalloproteinase-14. Put plainly: Inhibition of MT1-MMP mediated collagenolytic activity in human HT1080 cells stimulated with type I collagen for 48 hrs followed by compound addition at 1 to 10 uM and measured after 48 hrs by Coomassie Blue staining-based collagen film degradation assay. Type of series: cell-based.
For series [11] the target is unchanged. Put plainly: Inhibition of MT1-MMP-mediated collagen invasion in human HT1080 cells attached to gelatin-coated Cytodex 3 microcarrier beads assessed as cell migration out from the bead surface into collagen matrix at 1 to 10 uM and measured after overnight incubation by microcarriers beads invasion assay. Type of series: cell-based.
Series [12] has the same target. Put plainly: Inhibition of MT1-MMP-mediated proMMP-2 activation in human HT1080 cells stimulated with type I collagen for 24 hrs followed by compound addition assessed as increase in proMT1-MMP (65 KDa) level at 0.01 to 10 uM and measured after 24 hrs by Western blot analysis. Type of series: cell-based.
For series [13] the target is unchanged. To be noted: 10 uM. This is another data set of the same source.
Description: Inhibition of MT1-MMP-mediated proMMP-2 activation in human HT1080 cells stimulated with type I collagen for 24 hrs followed by compound addition at 10 uM and measured after 24 hrs by gelatin zymography assay
Series [14] shares this target. As to conditions: 0.01 to 10 uM.
Description: Inhibition of MT1-MMP-mediated proMMP-2 activation in human HT1080 cells stimulated with type I collagen for 24 hrs followed by compound addition assessed as increase in active MT1-MMP (55 KDa) level at 0.01 to 10 uM and measured after 24 hrs by Western blot analysis
The target is the same in series [15]. To be noted: 0.01 to 10 uM. This is another data set of the same source.
Description: Inhibition of MT1-MMP-mediated proMMP-2 activation in human HT1080 cells stimulated with type I collagen for 24 hrs followed by compound addition assessed as reduction in processed form of MT1-MMP (40 KDa) level at 0.01 to 10 uM and measured after 24 hrs by Western blot analysis
A short description of series [16]: Aqueous solubility of the compound. Type of series: physicochemical. To be noted: water (aqueous).
The target of series [17] is T2, Matrix metalloproteinase-14. Kind of series: Inhibition of MT1-MMP-mediated proMMP-2 activation in human HT1080 cells stimulated with type I collagen for 24 hrs followed by compound addition at 1 to 10 uM and measured after 24 hrs by gelatin zymography assay. Type of series: cell-based.
The target is the same in series [18]. Kind of series: Inhibition of MT1-MMP-mediated proMMP-2 activation in human HT1080 cells stimulated with type I collagen for 24 hrs followed by compound addition at <0.1 uM and measured after 24 hrs by gelatin zymography assay. Type of series: cell-based.

Chain of Matrix metalloproteinase-9 (P14780 whole entry, the tested form may be a part): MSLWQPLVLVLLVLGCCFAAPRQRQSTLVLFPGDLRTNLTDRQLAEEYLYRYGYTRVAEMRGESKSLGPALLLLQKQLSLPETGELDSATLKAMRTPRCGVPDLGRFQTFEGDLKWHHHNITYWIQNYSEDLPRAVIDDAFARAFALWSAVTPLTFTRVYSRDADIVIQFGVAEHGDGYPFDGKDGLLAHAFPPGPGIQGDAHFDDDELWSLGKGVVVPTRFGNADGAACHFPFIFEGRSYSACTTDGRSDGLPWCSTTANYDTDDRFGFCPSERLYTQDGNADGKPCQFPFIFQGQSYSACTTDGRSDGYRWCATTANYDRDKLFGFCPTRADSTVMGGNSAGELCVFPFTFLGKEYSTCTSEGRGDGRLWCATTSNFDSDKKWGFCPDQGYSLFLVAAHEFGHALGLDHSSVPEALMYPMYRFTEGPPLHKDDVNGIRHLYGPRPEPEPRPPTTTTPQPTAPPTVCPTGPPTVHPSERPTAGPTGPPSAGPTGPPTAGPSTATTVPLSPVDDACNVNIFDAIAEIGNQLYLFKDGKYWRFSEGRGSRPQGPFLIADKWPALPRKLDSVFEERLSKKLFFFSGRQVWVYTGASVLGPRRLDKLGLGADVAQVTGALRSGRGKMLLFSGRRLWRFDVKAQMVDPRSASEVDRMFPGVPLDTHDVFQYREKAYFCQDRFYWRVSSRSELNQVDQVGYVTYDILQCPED

As for `O=C(NCC[C@@H](NS(=O)(=O)c1ccc(-c2ccccc2)cc1)C(=O)NO)c1cccc(C(=O)NCC[C@@H](NS(=O)(=O)c2ccc(-c3ccccc3)cc2)C(=O)NO)c1`, the IC50 on Interstitial collagenase was found to be 870 nM; in [1], 1.2 nM; in series [2], 1.25 nM; in [3], 80 nM.
For `O=C(CCCNC(=O)c1cccc(C(=O)NCCCC(=O)NCC[C@@H](NS(=O)(=O)c2ccc(-c3ccccc3)cc2)C(=O)NO)c1)NCC[C@@H](NS(=O)(=O)c1ccc(-c2ccccc2)cc1)C(=O)NO` the same measures were 155 nM, 1.6 nM, 8.7 nM and 41 nM.
Take `CNC(=O)[C@H](Cc1c[nH]c2ccccc12)NC(=O)[C@@H](CC(=O)NO)CC(C)C`: the inhibition result in series [4], in series [5], in [6] and in series [8] was “Active” throughout. Besides, the inhibition entry in series [7] is “inactive”. Besides, the inhibition in [9] stood at 100%.
For `COc1ccc(-c2ccc(S(=O)(=O)N(CCNC(=O)CCCNC(=O)c3cccc(C(=O)NCCCC(=O)NCCN([C@H](CCN4C(=O)c5ccccc5C4=O)C(=O)NO)S(=O)(=O)c4ccc(-c5ccc(OC)cc5)cc4)c3)[C@H](CCN3C(=O)c4ccccc4C3=O)C(=O)NO)cc2)cc1`, the IC50 at Interstitial collagenase amounted to 45 nM; in series [1], 4.1 nM; in series [2] it was 2.1 nM; in series [3], 7 nM.
As to `COc1ccc(-c2ccc(S(=O)(=O)N(OC(C)C)[C@H](CCN3C(=O)c4ccccc4C3=O)C(=O)NO)cc2)cc1`, the IC50 on Interstitial collagenase was 170 nM. Further, the Activity entry in the series on HT-1080 is listed as “Toxic”. For the same compound, the inhibition result in [10], in [11] and in series [13] was “Active” each time. Further, the inhibition result in series [12], in [14] and in series [15] was “inactive” in each case.
Regarding `COc1ccc(-c2ccc(S(=O)(=O)N(CCNC(=O)c3cccc(C(=O)NCCN([C@H](CCN4C(=O)c5ccccc5C4=O)C(=O)NO)S(=O)(=O)c4ccc(-c5ccc(OC)cc5)cc4)c3)[C@H](CCN3C(=O)c4ccccc4C3=O)C(=O)NO)cc2)cc1`, the IC50 on Interstitial collagenase amounted to 150 nM; in series [1] it was 13 nM; in [2], 14 nM; in series [3], 14 nM. The compound further had a solubility in series [16] of over 1000 µM. Besides, in the series on HT-1080, the Activity entry is “Non-Toxic”. Besides, the inhibition result in series [17], in series [10] and in series [11] was “Active” throughout. In addition, the inhibition result in [4] and in [5] was “Dose-dependent effect” in each case. In addition, in series [18], the inhibition entry was “inactive”.

As usually defined, the IC50 is the point on the concentration scale where inhibition reaches its midpoint. In general, inhibition refers to the relative decrease from the control value, in per cent. As usually defined, the solubility is the concentration that dissolves in the medium under given conditions. A higher solubility goes with a readily soluble substance.
